Data taken from patent US12263176B2, “Pharmaceutical liquid compositions of meloxicam” (SLAYBACK PHARMA LLC, priority 2020, dated 2025).

Legend:
[1] = cited from earlier work
[2] = following oral administration; cited from earlier work
[3] = tested on: acute post-operative pain (Brennan) model in Sprague Dawley rats; experiment: Acute post-operative pain (Brennan) model, paw withdrawal latency / mechanical hyperalgesia; assay type: in vivo; conditions: 3 mg/kg IV
Experimental: Animal Study: Evaluation of Efficacy of Meloxicam Compositions in Acute Post-operative Pain (Brennan) Model in Sprague Dawley Rats.
The analgesic efficacy of Composition K was studied in comparison with Anjeso® and ketorolac tromethamine drug products in a rat acute post-operative pain model at a dose of 3 mg/kg administered by intravenous route.
Meloxicam compositions (Anjeso® & Composition K) & ketorolac drug products were tested in an acute post-operative (Brennan) pain model in rats after intravenous administration. Average paw withdrawal latency & mechanical hyperalgesia (pain assessment) parameters were assessed in rats after intravenous administration of vehicle (0.9% saline), ketorolac tromethamine (3 mg/kg), Anjeso® (3 mg/kg), Composition K (3 mg/kg). Evaluations began 30 minutes following surgery, and were continued for 240 minutes.
Mean paw withdrawal latency was between 8.6 to 8.9 across all the treatment groups. […] Average paw withdrawal latency in normal animals is 9.7 seconds whereas as it was 3.5 seconds in operated animals.

| SMILES | solubility in methanol ([1]; methanol) | solubility in water ([1]; water) | time of maximum observed plasma concentration (Tmax) [2] | increased average paw withdrawal latency compared with vehicle (0.9% saline) [3] | effect on development of mechanical allodynia ([3]; from 45 minutes till 240 minutes of recording, statistically significant at 45, 90 and 120 minutes) |
| --- | --- | --- | --- | --- | --- |
| Cc1cnc(NC(=O)C2=C(O)c3ccccc3S(=O)(=O)N2C)s1 [Meloxicam, 4-hydroxy-2-methyl-N-(5-methyl-2-thiazolyl)-2H-1,2-benzothiazine-3-carbox-amide-1,1-dioxide] | very slightly soluble | practically insoluble | 5 to 6 h |  |  |
| O=C(c1ccccc1)c1ccc2n1CCC2C(=O)O (centres unmarked) [ketorolac tromethamine] |  |  |  | 68% | significantly prevented the development of mechanical allodynia |
